Results reported in patent publication US12364694B2 (priority 2018, dated 2025).

What was measured:
dopamine D1 receptor = target: T1, dopamine D1 receptor (Homo sapiens, UniProt P21728); assay: Radioligand binding assay, human recombinant receptor in CHO cells; details: read-out: % Inhibition (mean) of control specific binding
T1 construct: expressed in transfected cells; host or cells: CHO

dopamine D2S receptor = target: T2, dopamine D2S receptor (Homo sapiens, UniProt P14416); assay: Radioligand binding assay, human recombinant receptor in HEK cells; details: read-out: % Inhibition (mean) of control specific binding
T2 construct: expressed in transfected cells; host or cells: HEK-293
T2 sequence (P14416 1-414 isoform P14416-2): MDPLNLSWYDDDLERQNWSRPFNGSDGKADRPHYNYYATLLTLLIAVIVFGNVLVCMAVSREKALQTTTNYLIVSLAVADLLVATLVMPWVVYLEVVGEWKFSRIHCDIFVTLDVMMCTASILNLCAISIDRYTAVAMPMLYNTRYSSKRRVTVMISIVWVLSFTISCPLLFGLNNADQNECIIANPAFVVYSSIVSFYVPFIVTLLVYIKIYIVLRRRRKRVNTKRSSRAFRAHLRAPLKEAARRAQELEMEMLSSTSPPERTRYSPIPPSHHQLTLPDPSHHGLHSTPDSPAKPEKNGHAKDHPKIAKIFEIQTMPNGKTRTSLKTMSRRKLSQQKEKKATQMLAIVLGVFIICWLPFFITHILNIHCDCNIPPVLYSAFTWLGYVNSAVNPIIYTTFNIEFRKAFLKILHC

[1] = target: T3, serotonin 5-HT2A receptor (Homo sapiens, UniProt P28223); assay: as above; details: read-out: % Inhibition (mean) of control specific binding
T3 construct: expressed in transfected cells; host or cells: HEK-293
T3 sequence (P28223 whole entry): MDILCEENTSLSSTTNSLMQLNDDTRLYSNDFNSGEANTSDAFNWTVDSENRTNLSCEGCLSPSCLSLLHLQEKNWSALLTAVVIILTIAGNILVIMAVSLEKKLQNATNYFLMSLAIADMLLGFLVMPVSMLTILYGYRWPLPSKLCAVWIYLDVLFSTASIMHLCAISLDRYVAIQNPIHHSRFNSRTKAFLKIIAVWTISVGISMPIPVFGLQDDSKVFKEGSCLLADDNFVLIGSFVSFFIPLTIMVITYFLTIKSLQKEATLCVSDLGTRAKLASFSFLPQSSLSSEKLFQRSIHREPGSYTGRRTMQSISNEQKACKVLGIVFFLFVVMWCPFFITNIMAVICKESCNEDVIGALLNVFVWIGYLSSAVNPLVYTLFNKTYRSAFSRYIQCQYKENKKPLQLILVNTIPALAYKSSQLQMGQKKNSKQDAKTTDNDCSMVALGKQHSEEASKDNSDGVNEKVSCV

[2] = target: T4, serotonin transporter (SERT) (Homo sapiens, UniProt P31645); assay: Radioligand binding assay, human recombinant transporter in CHO cells; details: read-out: % Inhibition (mean) of control specific binding
T4 construct: expressed in transfected cells; host or cells: CHO
T4 sequence (P31645 whole entry): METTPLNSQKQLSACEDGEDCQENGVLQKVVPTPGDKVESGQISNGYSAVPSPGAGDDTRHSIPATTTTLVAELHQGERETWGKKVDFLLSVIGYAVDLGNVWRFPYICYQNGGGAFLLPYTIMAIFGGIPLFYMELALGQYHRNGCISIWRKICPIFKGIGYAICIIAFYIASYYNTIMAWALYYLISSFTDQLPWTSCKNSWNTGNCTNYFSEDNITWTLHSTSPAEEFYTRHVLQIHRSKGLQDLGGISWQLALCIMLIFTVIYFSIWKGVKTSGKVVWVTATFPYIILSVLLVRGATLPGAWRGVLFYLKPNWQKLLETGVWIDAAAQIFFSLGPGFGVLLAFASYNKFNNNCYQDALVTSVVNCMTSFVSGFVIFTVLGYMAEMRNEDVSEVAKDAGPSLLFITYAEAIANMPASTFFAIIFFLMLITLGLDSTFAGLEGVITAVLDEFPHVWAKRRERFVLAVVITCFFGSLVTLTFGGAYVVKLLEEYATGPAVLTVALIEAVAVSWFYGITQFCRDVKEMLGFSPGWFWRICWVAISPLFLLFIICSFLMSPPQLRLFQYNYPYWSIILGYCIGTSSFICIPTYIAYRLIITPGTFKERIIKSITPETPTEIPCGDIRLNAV

[3] = system: protein phosphorylation (ERK1, ERK2, Glul, NR2B and TH) in mice nucleus accumbens; details: cited from earlier work
mouse formalin paw test = details: subcutaneous paw pre-treatment 30 minutes prior to […] formalin, three doses; cited from earlier work
[4] = target: serotonin 5-HT2 receptor family; details: mice, oral dosing, subcutaneous DOI; cited from earlier work
[5] = rat, in vivo, po, 10 mg/kg
in vivo = details: rat
[6] = system: mouse marble-burying model for OCD; details: positive control, after 30 minutes; cited from earlier work
male Sprague-Dawley rats = details: cited from earlier work; for tolerance during repeated dosing: subcutaneous dosing for 28 days, 0.3 and 3 mg/kg; for physical dependence upon cessation of dosing: withdrawal after 28 days subcutaneous dosing

T1 sequence (P21728 whole entry): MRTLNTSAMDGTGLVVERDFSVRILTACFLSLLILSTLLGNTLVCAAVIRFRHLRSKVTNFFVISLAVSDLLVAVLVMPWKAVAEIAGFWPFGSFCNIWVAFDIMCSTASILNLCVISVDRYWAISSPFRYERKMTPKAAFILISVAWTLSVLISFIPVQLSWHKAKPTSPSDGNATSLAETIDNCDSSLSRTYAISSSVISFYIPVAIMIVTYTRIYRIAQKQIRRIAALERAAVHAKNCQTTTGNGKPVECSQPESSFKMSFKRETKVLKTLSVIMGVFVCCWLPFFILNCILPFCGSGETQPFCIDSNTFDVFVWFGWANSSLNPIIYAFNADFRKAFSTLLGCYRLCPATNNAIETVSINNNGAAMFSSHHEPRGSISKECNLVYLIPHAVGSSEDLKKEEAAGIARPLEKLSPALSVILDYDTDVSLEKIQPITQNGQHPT

Molecule: [2H]C1([2H])C(=O)Nc2cccc3c2N1[C@H]1CCN(CCCOc2ccc(F)cc2)C[C@@H]31 [Example 1, (6bR,10aS)-1,1-d2-8-(3-(4-fluorophenoxy)propyl)-6b,7,8,9,10,10a-hexahydro-1H-pyrido[3′,4′:4,5]pyrrolo[1,2,3-de]quinoxalin-2(3H)-one]
- inhibition at 0.1 µM (dopamine D1 receptor): 36.6%
- inhibition at 0.3 µM (dopamine D2S receptor): 47.5%
- inhibition at 0.01 µM [1]: 64.7%
- inhibition at 1 µM [2]: 34.5%

Molecule: [2H]C([2H])(CCN1CC[C@H]2[C@@H](C1)c1cccc3c1N2CC(=O)N3)Oc1ccc(F)cc1 [Example 7, (6bR,10aS)-8-(3,3-dideuterio-3-(4-fluorophenoxy)propyl)-6b,7,8,9,10,10a-hexahydro-1H-pyrido[3′,4′:4,5]pyrrolo[1,2,3-de]quinoxalin-2(3H)-one]
- inhibition at 0.1 µM (dopamine D1 receptor): 34.8%
- inhibition at 0.3 µM (dopamine D2S receptor): 53.3%
- inhibition at 0.01 µM [1]: 63.5%
- inhibition at 1 µM [2]: 31.1%

Molecule: O=C1CN2c3c(cccc3[C@@H]3CN(CCCOc4ccc(F)cc4)CC[C@@H]32)N1 [Formula A]
- inhibition at 0.1 µM (dopamine D1 receptor): 43.4%
- inhibition at 0.3 µM (dopamine D2S receptor): 53.6%
- inhibition at 0.01 µM [1]: 63%
- inhibition at 1 µM [2]: 33.4%
- effect on ERK2 phosphorylation [3]: marginal effects
- effect on GluR1 phosphorylation [3]: marginal effects
- effect on NR2B phosphorylation [3]: neither the compound of Formula A nor the compound of Formula B has a significant effect
- effect on TH phosphorylation [3]: neither the compound of Formula A nor the compound of Formula B has a significant effect
- early phase acute pain response and late phase delayed inflammatory response (mouse formalin paw test): dose-dependently attenuates both the early phase acute pain response and the late phase delayed inflammatory response
- EC50 blocking DOI-induced head twitch [4]: 0.44 mg/kg, p.o.

Molecule: O=C1CN2c3c(cccc3[C@@H]3CN(CCCC(=O)c4ccc(F)cc4)CC[C@@H]32)N1 [Formula B, 4-((6bR,10aS)-2-oxo-2,3,6b,9,10,10a-hexahydro-1H,7H-pyrido[3′,4′:4,5]pyrrolo[1,2,3-de]quinoxalin-8-yl)-1-(4-fluoro-phenyl)-butan-1-one]
- effect on ERK2 phosphorylation [3]: marginal effects
- effect on GluR1 phosphorylation [3]: marginal effects
- effect on NR2B phosphorylation [3]: neither the compound of Formula A nor the compound of Formula B has a significant effect
- effect on TH phosphorylation [3]: neither the compound of Formula A nor the compound of Formula B has a significant effect
- EC50 blocking DOI-induced head twitch [4]: 0.23 mg/kg, p.o.

Molecule: [2H]C([2H])(CC([2H])([2H])N1CC[C@H]2[C@@H](C1)c1cccc3c1N2CC(=O)N3)Oc1ccc(F)cc1 [Example 3, (6bR,10aS)-8-(1,1,3,3-d4-3-(4-fluorophenoxy)propyl)-6b,7,8,9,10,10a-hexahydro-1H-pyrido[3′,4′:4,5]pyrrolo[1,2,3-de]quinoxalin-2(3H)-one]
- inhibition at 0.1 µM (dopamine D1 receptor): 36.3%
- inhibition at 0.3 µM (dopamine D2S receptor): 55.1%
- inhibition at 0.01 µM [1]: 64.1%
- inhibition at 1 µM [2]: 31.8%

Molecule: [2H]c1c([2H])c(OC([2H])([2H])C([2H])([2H])C([2H])([2H])N2CC[C@H]3[C@@H](C2)c2cccc4c2N3C([2H])([2H])C(=O)N4)c([2H])c([2H])c1F [Example 8, (6bR,10aS)-1,1-dideuterio-8-(1,1,2,2,3,3-hexadeuterio-3-(2,3,5,6-tetradeuterio-4-fluorophenoxy)propyl)-6b,7,8,9,10,10a-hexahydro-1H-pyrido[3′,4′:4,5]pyrrolo[1,2,3-de]quinoxalin-2(3H)-one]
- plasma concentration [5]: BLQ
- AUC (in vivo; po, 10 mg/kg): 3390 ng·h/mL
- Cmax (in vivo; po, 10 mg/kg): 68.4 ng/mL
- Tmax (in vivo; po, 10 mg/kg): 6 h
- concentration at 0.033 h (in vivo; po, 10 mg/kg): 1.3 ng/mL
- concentration at 0.083 h (in vivo; po, 10 mg/kg): 8.6 ng/mL
- concentration at 0.5 h (in vivo; po, 10 mg/kg): 45.8 ng/mL
- concentration at 1 h (in vivo; po, 10 mg/kg): 62.4 ng/mL
- concentration at 2 h (in vivo; po, 10 mg/kg): 133 ng/mL
- concentration at 6 h (in vivo; po, 10 mg/kg): 245 ng/mL
- concentration at 8 h (in vivo; po, 10 mg/kg): 187 ng/mL
- concentration at 12 h (in vivo; po, 10 mg/kg): 181 ng/mL
- concentration at 24 h (in vivo; po, 10 mg/kg): 3.3 ng/mL
- concentration at […] (in vivo; po, 10 mg/kg): 46.7 ng/mL
- AUC (in vivo; sc, 3 mg/kg): 494 ng·h/mL
- Cmax (in vivo; sc, 3 mg/kg): 78.9 ng/mL
- Tmax (in vivo; sc, 3 mg/kg): 1 h
- concentration at 0.033 h (in vivo; sc, 3 mg/kg): 5.7 ng/mL
- concentration at 0.083 h (in vivo; sc, 3 mg/kg): 25.7 ng/mL
- concentration at 0.5 h (in vivo; sc, 3 mg/kg): 76.4 ng/mL
- concentration at 1 h (in vivo; sc, 3 mg/kg): 78.9 ng/mL
- concentration at 2 h (in vivo; sc, 3 mg/kg): 62.9 ng/mL
- concentration at 6 h (in vivo; sc, 3 mg/kg): 14.1 ng/mL
- concentration at 8 h (in vivo; sc, 3 mg/kg): 6.5 ng/mL
- concentration at 12 h (in vivo; sc, 3 mg/kg): 4.1 ng/mL
- concentration at 24 h (in vivo; sc, 3 mg/kg): 2.1 ng/mL
- concentration at 48 h (in vivo; sc, 3 mg/kg): 2.4 ng/mL
- concentration at 72 h (in vivo; sc, 3 mg/kg): 1.4 ng/mL
- concentration at […] (in vivo; sc, 3 mg/kg): 46 ng/mL

Molecule: O=C(CCCN1CCC(O)(c2ccc(Cl)cc2)CC1)c1ccc(F)cc1 [haloperidol]
- increase in TH phosphorylation [3]: 400-500%

Molecule: Cc1cccc(C#Cc2ccccc2)n1 [MPEP, 2-methyl-6-(phenylethynyl)pyridine]
- Marbles Buried [6]: 0.2

Molecule: [2H]C([2H])(Oc1ccc(F)cc1)C([2H])([2H])C([2H])([2H])N1CC[C@H]2[C@@H](C1)c1cccc3c1N2CC(=O)N3 [Example 2, (6bR,10aS)-8-(1,1,2,2,3,3-d6-3-(4-fluorophenoxy)propyl)-6b,7,8,9,10,10a-hexahydro-1H-pyrido[3′,4′: 4,5]pyrrolo[1,2,3-de]quinoxalin-2(3H)-one]
- plasma concentration [5]: BLQ
- AUC (in vivo; po, 10 mg/kg): 3660 ng·h/mL
- Cmax (in vivo; po, 10 mg/kg): 64.6 ng/mL
- Tmax (in vivo; po, 10 mg/kg): 6 h
- concentration at 0.033 h (in vivo; po, 10 mg/kg): 1 ng/mL
- concentration at 0.083 h (in vivo; po, 10 mg/kg): 10.6 ng/mL
- concentration at 0.5 h (in vivo; po, 10 mg/kg): 55.7 ng/mL
- concentration at 1 h (in vivo; po, 10 mg/kg): 72.3 ng/mL
- concentration at 2 h (in vivo; po, 10 mg/kg): 143 ng/mL
- concentration at 6 h (in vivo; po, 10 mg/kg): 260 ng/mL
- concentration at 8 h (in vivo; po, 10 mg/kg): 200 ng/mL
- concentration at 12 h (in vivo; po, 10 mg/kg): 196 ng/mL
- concentration at 24 h (in vivo; po, 10 mg/kg): 3 ng/mL
- concentration at […] (in vivo; po, 10 mg/kg): 56.9 ng/mL
- AUC (in vivo; sc, 3 mg/kg): 492 ng·h/mL
- Cmax (in vivo; sc, 3 mg/kg): 81.4 ng/mL
- Tmax (in vivo; sc, 3 mg/kg): 1 h
- concentration at 0.033 h (in vivo; sc, 3 mg/kg): 6 ng/mL
- concentration at 0.083 h (in vivo; sc, 3 mg/kg): 27.5 ng/mL
- concentration at 0.5 h (in vivo; sc, 3 mg/kg): 80 ng/mL
- concentration at 1 h (in vivo; sc, 3 mg/kg): 81.4 ng/mL
- concentration at 2 h (in vivo; sc, 3 mg/kg): 65.2 ng/mL
- concentration at 6 h (in vivo; sc, 3 mg/kg): 15 ng/mL
- concentration at 8 h (in vivo; sc, 3 mg/kg): 6.7 ng/mL
- concentration at 12 h (in vivo; sc, 3 mg/kg): 3.9 ng/mL
- concentration at 24 h (in vivo; sc, 3 mg/kg): 2.1 ng/mL
- concentration at 48 h (in vivo; sc, 3 mg/kg): 2 ng/mL
- concentration at 72 h (in vivo; sc, 3 mg/kg): 1 ng/mL
- concentration at […] (in vivo; sc, 3 mg/kg): 48.2 ng/mL

Molecule: [2H]C1([2H])C(=O)Nc2cccc3c2N1[C@H]1CCN(C([2H])([2H])C([2H])([2H])C([2H])([2H])Oc2ccc(F)cc2)C[C@@H]31 [Example 9, (6bR,10aS)-1,1-dideuterio-8-(1,1,2,2,3,3-hexadeuterio-3-(4-fluorophenoxy)-propyl)-6b,7,8,9,10,10a-hexahydro-1H-pyrido[3′,4′:4,5]pyrrolo[1,2,3-de]quinoxalin-2(3H)-one]
- inhibition at 0.1 µM (dopamine D1 receptor): 35.2%
- inhibition at 0.3 µM (dopamine D2S receptor): 49.6%
- inhibition at 0.01 µM [1]: 60.1%
- inhibition at 1 µM [2]: 28.4%

Molecule: CN1CC[C@]23c4c5ccc(O)c4O[C@H]2[C@@H](O)C=C[C@H]3[C@H]1C5 [Morphine, reference compound]
- tolerance during repeated dosing (male Sprague-Dawley rats): clear signs of tolerance and dependence
- physical dependence upon cessation of dosing (male Sprague-Dawley rats): clear signs of tolerance and dependence

Molecule: (6bR,10aS)-8-(1,1,3,3-d4-3-(4-fluorophenoxy)propyl)-6b,7,8,9,10,10a-hexahydro-1H-pyrido[3′,4′:4,5]pyrrolo[1,2,3-de]quinoxalin-2(3H)-one [Example 3]
- tolerance during repeated dosing (male Sprague-Dawley rats): does not produce tolerance
- physical dependence upon cessation of dosing (male Sprague-Dawley rats): not to produce a syndrome of physical dependence

Molecule: [2H]c1c([2H])c(OCCCN2CC[C@H]3[C@@H](C2)c2cccc4c2N3CC(=O)N4)c([2H])c([2H])c1F [Example 6, (6bR,10aS)-8-(3-(2,3,5,6-tetradeuterio-4-fluorophenoxy)propyl)-6b,7,8,9,10,10a-hexahydro-1H-pyrido[3′,4′:4,5]pyrrolo[1,2,3-de]quinoxalin-2(3H)-one]
- inhibition at 0.1 µM (dopamine D1 receptor): 32.6%
- inhibition at 0.3 µM (dopamine D2S receptor): 48.7%
- inhibition at 0.01 µM [1]: 60.2%
- inhibition at 1 µM [2]: 29.1%
